Data set [1] has as its system 32D c13 hemopoietic cells. In words: Mass spectrometry analysis of mitochondria isolated from incubated 32D c13 cells. The data set is classed as cell-based. As to conditions: 100 μM, two hours at 37° C. Here is the method:
An unconjugated and conjugated NOS antagonist, (AMT, 100 μM) and an unconjugated and conjugated nitroxide derivative (4-amino-TEMPO, 100 μM) were incubated for two hours at 37° C. with 32D c13 hemopoietic cells.
Following incubation, the cells were lysed and the mitochondria isolated for a mass spectrometry analysis where compounds isolated from mitochondria were identified as Na+ adducts. […] Thus, the targeting peptides successfully direct a NOS antagonist and a nitroxide to the mitochondria.

The subject of data set [2] is MECs. The data set can be described thus: ActD-induced apoptosis in MECs (PS externalization, caspase-3 activation, DNA fragmentation). It counts as cell-based, mouse. As to conditions: 10 μM / low concentrations, ActD 100 ng/mL. The text has this: Cells that annexin V-positive and PI-negative were considered apoptotic.
The subject of data set [3] is mouse embryonic cells (MEC). The data set is classed as cell-based. As to conditions: 10 μM; with and without K3Fe(CN)6. Here is the method: Electron paramagnetic resonance (“EPR”) spectroscopy was used to monitor the cellular delivery of compounds 5a and 5b shown in FIG. 2 in mouse embryonic cells (“MEC”).
The following conditions were used during the EPR-based analysis of the integration and reduction of nitroxide Gramicidin S-peptidyl conjugates in MECs. The MECs at a concentration of 10 million MECs per mL were incubated with 10 μM of 4-AT and compound 5a, respectively. Recovered nitroxide radicals in whole cells, mitochondria, and cytosol fractions were resuspended in phosphate buffer saline (“PBS”) in the presence and absence, respectively, of 2 μM K3Fe(CN)6.

Data set [4] relates to MECs. The data set can be described thus: Determination of intracellular superoxide radicals (DHE oxidation, flow cytometry) in ActD-treated MECs. It counts as cell-based, mouse. As to conditions: 10 μM pretreatment, ActD 100 ng/mL; nearly two-fold ActD-induced increase. Here is the method: Determination of intracellular superoxide radicals Oxidation-dependent fluorogenic dye, dihydroethidium (“DHE”, Molecular Probes) was used to evaluate intracellular production of superoxide radicals. DHE is cell permeable and, in the presence of superoxide, is oxidized to fluorescent ethidium which intercalates into DNA. The fluorescence of ethidium was measured using a FACscan (BECTON-DICKINSON, Rutherford, N.J.) flow cytometer, equipped with a 488-nm argon ion laser and supplied with the Cell Quest software. Mean fluorescence intensity from 10,000 cells were acquired using a 585-nm bandpass filter (FL-2 channel).
On the technique in general: Flow cytometry measures light scatter and fluorescence of single cells or particles in a stream.

Data set [5] deals with irradiated uroepithelial cells. In words: NO and peroxynitrite production in irradiated uroepithelial cells (microsensor measurements). The data set is classed as cell-based. Here is the method:
Further physiological studies were conducted to determine the effects of peptide-targeted AMT and 4-amino-TEMPO on NO and peroxynitrite production in irradiated uroepithelial cells. The cells were cultured in an 8-well slide chamber for 3 days and then microsensor measurements were taken 24 hours after irradiation.
In cells treated with high-dose conjugated 4-amin-TEMPO (100 μM), peroxynitrite production was decreased by approximately 4-fold.

The subject of data set [6] is rat ileal mucosal permeability. The data set can be described thus: Intestinal mucosal permeability assay (FD4 clearance, everted gut sacs) after pressure-controlled hemorrhagic shock. The data set is classed as in vivo. As to conditions: for protection against hemorrhagic shock-induced ileal mucosal hyperpermeability: intraluminal, 0.1-100 μM, 2 h shock. Here is the method: Intestinal mucosal permeability assay. Animals were allowed access to water but not food for 24 h prior to the experiment in order to decrease the volume of intestinal contents. The rats were instrumented as described above.
A midline laparotomy was performed and the small intestine was exteriorized from the duodenojejunal junction to the ileocecal valve. A small incision was made on the antimesenteric aspect of the proximal small intestine and saline solution (1.5 ml) was injected. The bowel was ligated proximally and distally to the incision with 4-0 silk (LOOK, Reading, Pa.).
The small intestine was compressed gently in aboral direction along its length to displace intestinal contents into the colon. Starting 5 cm from the ileocecal valve, the ileum was partitioned into six contiguous water-tight segments. Each segment was 3 cm long and was bounded proximally and distally by constricting circumferential 4-0 silk sutures. Care was taken to ensure that the vascular supply to intestine was not compromised, and each segment was well-perfused.
Two randomly selected segments in each rat were injected with 0.3 ml of vehicle and served as “no treatment” controls. In order to fill the segments, a small incision was made and the solution was injected using a Teflon catheter (ABBOCATH 16Ga, ABBOTT LABORATORIES).
The remaining four other segments were injected with solutions containing either 4-hydroxy-2,2,6,6-tetramethylpiperidine-N-oxyl (TEMPOL) or one of the Gramicidin S-based compounds. Four different final concentrations of TEMPOL in normal saline were evaluated: 0.1, 1, 5 and 20 mM. The hemigramicidin-based compounds were dissolved in a mixture of dimethylsulfoxide (DMSO) and normal saline (1:99 v/v) and injected at final concentrations of 0.1, 1, 10 or 100 μM.
After the segments were loaded with saline or the test compounds, the bowel was replaced inside the peritoneal cavity and the abdominal incision was temporarily closed using Backhaus forceps.
After a 5 min stabilization period, hemorrhagic shock was induced by withdrawing blood via the jugular catheter. MAP was maintained at 30±3 mm Hg for 2 hours. The shed blood was re-infused as needed to maintain MAP within the desired range.
After 2 h of shock, the animals were euthanized with an intracardiac KCl bolus injection. The ileum was rapidly excised from the ileocecal valve to the most proximal gut segment. The tips of each segment were discarded. In order to assay caspases 3 and 7 activity and phospholipids peroxidation, mucosa samples were collected from gut segments immediately after hemorrhage and stored at −80° C. For permeability measurements, each segment was converted into an everted gut sac, as previously described by Wattanasirichaigoon et al., see Wattanasirichaigoon, S. et al., Effect of mesenteric ischemia and reperfusion or hemorrhagic shock on intestinal mucosal permeability and ATP content in rats, SHOCK, 12:127-133 (1999).
Briefly, as per the Wattanasirichaigoon protocol referenced above, the sacs were prepared in ice-cold modified Krebs-Henseleit bicarbonate buffer (“KHBB”), pH 7.4. One end of the gut segment was ligated with a 4-0 silk suture; the segment was then everted onto a thin plastic rod. The resulting gut sac was mounted on a Teflon catheter (Abbocath 16GA, Abbot Laboratories) connected to a 3 ml plastic syringe containing 1.5 ml of KHBB. The sac was suspended in a beaker containing KHBB plus fluorescein-isothiocyanate labeled dextran (average molecular mass 4 kDa; FD4; 0.1 mg/ml). This solution was maintained at 37° C., and oxygenated by bubbling with a gas mixture (O2 95%/CO2 5%). After 30 min, the fluid within the gut sac was collected. The samples were cleared by centrifugation at 2000 g for 5 min.
Fluorescence of FD4 in the solution inside the beaker and within each gut sac was measured using a fluorescence spectrophotometer (LS-50, PERKIN-ELMER, Palo Alto, Calif.) at an excitation wavelength of 492 nm and an emission wavelength of 515 nm. […]

The test system of the next data set is mitochondrial membrane. The data set can be described thus: Quantitative mass spectrometry of AMT peptide conjugates permeating the mitochondrial membrane. As to conditions: for Fmole/l0M mitochondrial protein: relative quantification of conjugate concentration at the target site. It counts as cell-based. Here is the method: Quantitative mass spectrometry studies were used to compare the effectiveness of several AMT peptide conjugates in permeating the mitochondrial membrane, specifically XJB-5-234, XJB-5-133, XJB-5-241, and XJB-5-127. The Fmole/10 μM mitochondrial protein ratio provides a relative quantification of conjugate concentration at the target site.

Non-standard residues stand in square brackets, D forms with d. Residues, ends and D or L forms follow the SMILES beside them. *: point of attachment. Orn = NCCC[C@H](N)C(=O)O; Cbz = O=C(OCc1ccccc1)*; Boc = CC(C)(C)OC(=O)*; X1 = CC1CCN=C(N*)S1 Where only a bound is given, the exact number is not on record here.

In the case of `CC1(C)CC(N)CC(C)(C)N1[O]` [4-AT, 4-amino-TEMPO, reference compound], the “permeation of the mitochondrial membrane (mass spectrometry of isolated mitochondria)” value in data set [1] is “only permeate the mitochondrial membrane with the assistance of the attached GS-derived targeting sequence”. The “protection of MECs against ActD-induced apoptosis” value in the data set with MECs [2] is on record as “afforded no protection”. For the same compound, in data set [3], the “integration and one-electron reduction in MECs (EPR signal increase upon ferricyanide)” value is on record as “did not effectively permeate cells or the mitochondria”. Further, in the data set on MECs [4], the “intracellular superoxide generation in MECs” value is on record as “no effect”. In addition, in data set [5] (100 μM, 24 hours after irradiation), the “capsaicin-evoked peroxynitrite formation compared with untreated irradiated cells” value is listed as “comparable amount of peroxynitrite”.

As to `CC1CCN=C(N)S1` (centres unmarked) [AMT, 2-amino-6-methyl-thiazine], the “permeation of the mitochondrial membrane (mass spectrometry of isolated mitochondria)” value in data set [1] is “do not enter the mitochondria membrane in substantial quantities”. Moreover, in data set [5], the “radioprotectant effectiveness compared with 4-amino-TEMPO” value is listed as “more effective radioprotectant”. Besides, in data set [5] (10 μM, 24 hours after irradiation), the “NO induced peroxynitrite formation” value is recorded as “comparable amount of peroxynitrite”.

Regarding `CC1(C)CC(O)CC(C)(C)N1[O]` [TEMPOL, 4-hydroxy-2,2,6,6-tetramethylpiperidine-N-oxyl, reference compound], the “concentrations in the gut lumen that ameliorated hemorrhagic shock-induced ileal mucosal hyperpermeability” value in data set [6] (intraluminal, 0.1, 1, 5 and 20 mM tested) is greater than 1 mM.

As for `CC(C)C[C@H](NC(=O)OC(C)(C)C)C(=O)N[C@H](Cc1ccccc1)C(=O)N1CCC[C@H]1C(=O)N[C@H](C(=O)N[C@@H](CCCNC(=O)OCc1ccccc1)C(=O)NC1=NCCC(C)S1)C(C)C` (stereo partly drawn) [XJB-5-127, Boc-Leu-^DPhe-Pro-Val-Orn(Cbz)-AMT] (Boc-L[dF]PV[Orn](Cbz)-X1), in data set [6], the “protection against hemorrhagic shock-induced ileal mucosal hyperpermeability” value was “Ineffective”. The “biological activity compared with XJB-5-241” value with mitochondrial membrane is “less biologically active”.

With `CC(C)C[C@@H](/C=C/[C@H](Cc1ccccc1)C(=O)N1CCC[C@H]1C(=O)N[C@H](C(=O)N[C@@H](CCCNC(=O)OCc1ccccc1)C(=O)NC1=NCCC(C)S1)C(C)C)NC(=O)OC(C)(C)C` (stereo partly drawn) [XJB-5-133, Boc-Leu-ψ[(E)-CH═CH]-^DPhe-Pro-Val-Orn(Cbz)-AMT], the “protection against hemorrhagic shock-induced ileal mucosal hyperpermeability” value in data set [6] is on record as “did not afford protection”. In the data set with mitochondrial membrane, the “biological activity compared with XJB-5-241” value is “less biologically active” and the Fmole/l0M mitochondrial protein was 89.8 Fmole/l0M mitochondrial protein.

Consider `CC(C)C[C@@H](/C=C/[C@H](Cc1ccccc1)C(=O)NC1=NCCC(C)S1)NC(=O)OC(C)(C)C` (stereo partly drawn) [XJB-5-234, Boc-Leu-ψ[(E)-CH═CH]-^DPhe-AMT], for which, in the data set with mitochondrial membrane, the Fmole/l0M mitochondrial protein is listed as 1.45 Fmole/l0M mitochondrial protein.

Consider `C/C(=C\[C@H](Cc1ccccc1)C(=O)N1CCC[C@H]1C(=O)N[C@H](C(=O)N[C@@H](CCCNC(=O)OCc1ccccc1)C(=O)NC1=NCCC(C)S1)C(C)C)[C@H](CC(C)C)NC(=O)OC(C)(C)C` (stereo partly drawn) [XJB-5-241, Boc-Leu-ψ[(E)-C(CH3)═CH]-^DPhe-Pro-Val-Orn(Cbz)-AMT], for which the “ranking of conjugates in permeating the mitochondrial membrane” value in the data set on mitochondrial membrane (among XJB-5-234, XJB-5-133, XJB-5-241 and XJB-5-127) is recorded as “most efficacious conjugate”. Further, the Fmole/l0M mitochondrial protein in the data set on mitochondrial membrane is 103.3 Fmole/l0M mitochondrial protein.
